# Data published in PubChem BioAssay (NCI).
#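 Exposure lasted 48 hours, with cells grown in 96-well plates and compounds tested at five concentrations. TGI is the concentration that stops growth completely.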
# What was measured:
# Assay in all cases: growth of human tumour cells (NCI), 48 h
# [1] = test system: 786-0 renal
# [2] = test system: A498 renal
# [3] = test system: A549 NSCLC
# [4] = test system: ACHN renal
# [5] = test system: BT-549 breast
# [6] = test system: CAKI-1 renal
# [7] = test system: CCRF-CEM leukemia
# [8] = test system: DU-145 prostate
# [9] = test system: EKVX NSCLC
# [10] = test system: HCC-2998 colon
# [11] = test system: HCT-116 colon
# [12] = test system: HCT-15 colon
# [13] = test system: HL-60(TB) leukemia
# [14] = test system: HOP-62 NSCLC
# [15] = test system: HOP-92 NSCLC
# [16] = test system: HS 578T breast
# [17] = test system: HT29 colon
# [18] = test system: IGROV1 ovarian
# [19] = test system: K-562 leukemia
# [20] = test system: KM12 colon
# [21] = test system: LOX IMVI melanoma
# [22] = test system: M14 melanoma
# [23] = test system: MALME-3M melanoma
# [24] = test system: MCF7 breast
# [25] = test system: MDA-MB-231 breast
# [26] = test system: MDA-MB-435
# [27] = test system: MDA-N
# [28] = test system: MOLT-4 leukemia
# [29] = test system: NCI-H226 lung
# [30] = test system: NCI-H23 lung
# [31] = test system: NCI-H460 lung
# [32] = test system: NCI-H522 lung
# [33] = test system: NCI/ADR-RES ovarian
# [34] = test system: OVCAR-3 ovarian
# [35] = test system: OVCAR-4 ovarian
# [36] = test system: OVCAR-5 ovarian
# [37] = test system: OVCAR-8 ovarian
# [38] = test system: PC-3 prostate
# [39] = test system: RPMI-8226 leukemia
# [40] = test system: RXF 393 renal
# [41] = test system: SF-268 CNS
# [42] = test system: SF-295 CNS
# [43] = test system: SF-539 CNS
# [44] = test system: SK-MEL-2 melanoma
# [45] = test system: SK-MEL-28 melanoma
# [46] = test system: SK-MEL-5 melanoma
# [47] = test system: SK-OV-3 ovarian
# [48] = test system: SN12C renal
# [49] = test system: SNB-19 CNS
# [50] = test system: SNB-75 CNS
# [51] = test system: SW-620 colon
# [52] = test system: T-47D breast
# [53] = test system: TK-10 renal
# [54] = test system: U251 CNS
# [55] = test system: UACC-257 melanoma
# [56] = test system: UACC-62 melanoma
# [57] = test system: UO-31 renal
# [58] = test system: COLO 205 colon
structure (smiles),measurement,setting,value
Nc1ncnc2c1ccn2COC(CO)CO,TGI,[1],> 100 µM
same,TGI,[2],> 100 µM
same,TGI,[3],> 100 µM
same,TGI,[4],> 100 µM
same,TGI,[5],> 100 µM
same,TGI,[6],> 100 µM
same,TGI,[7],> 100 µM
same,TGI,[8],> 100 µM
same,TGI,[9],> 100 µM
same,TGI,[10],> 100 µM
same,TGI,[11],> 100 µM
same,TGI,[12],> 100 µM
same,TGI,[13],> 100 µM
same,TGI,[14],> 100 µM
same,TGI,[15],> 100 µM
same,TGI,[16],> 100 µM
same,TGI,[17],> 100 µM
same,TGI,[18],> 100 µM
same,TGI,[19],> 100 µM
same,TGI,[20],> 100 µM
same,TGI,[21],> 100 µM
same,TGI,[22],> 100 µM
same,TGI,[23],> 100 µM
same,TGI,[24],> 100 µM
same,TGI,[25],> 100 µM
same,TGI,[26],> 100 µM
same,TGI,[27],> 100 µM
same,TGI,[28],> 100 µM
same,TGI,[29],> 100 µM
same,TGI,[30],> 100 µM
same,TGI,[31],> 100 µM
same,TGI,[32],> 100 µM
same,TGI,[33],> 100 µM
same,TGI,[34],> 100 µM
same,TGI,[35],> 100 µM
same,TGI,[36],> 100 µM
same,TGI,[37],> 100 µM
same,TGI,[38],> 100 µM
same,TGI,[39],> 100 µM
same,TGI,[40],> 100 µM
same,TGI,[41],> 100 µM
same,TGI,[42],> 100 µM
same,TGI,[43],> 100 µM
same,TGI,[44],> 100 µM
same,TGI,[45],> 100 µM
same,TGI,[46],> 100 µM
same,TGI,[47],> 100 µM
same,TGI,[48],> 100 µM
same,TGI,[49],> 100 µM
same,TGI,[50],> 100 µM
same,TGI,[51],> 100 µM
same,TGI,[52],> 100 µM
same,TGI,[53],> 100 µM
same,TGI,[54],> 100 µM
same,TGI,[55],> 100 µM
same,TGI,[56],> 100 µM
same,TGI,[57],> 100 µM
O=C(O)C(F)(F)C(F)(F)C(F)(F)C(F)(F)C(F)(F)C(F)(F)C(F)(F)C(F)(F)F,TGI,[1],> 100 µM
same,TGI,[2],> 100 µM
same,TGI,[3],> 100 µM
same,TGI,[4],> 100 µM
same,TGI,[5],> 100 µM
same,TGI,[6],> 100 µM
same,TGI,[7],> 100 µM
same,TGI,[58],> 100 µM
same,TGI,[8],> 100 µM
same,TGI,[9],> 100 µM
same,TGI,[10],> 100 µM
same,TGI,[11],> 100 µM
same,TGI,[12],> 100 µM
same,TGI,[13],62.4 µM
same,TGI,[14],> 100 µM
same,TGI,[15],58.7 µM
same,TGI,[16],> 100 µM
same,TGI,[17],> 100 µM
same,TGI,[18],> 100 µM
same,TGI,[19],92.4 µM
same,TGI,[20],> 100 µM
same,TGI,[21],> 100 µM
same,TGI,[22],> 100 µM
same,TGI,[23],> 100 µM
same,TGI,[24],> 100 µM
same,TGI,[25],> 100 µM
same,TGI,[26],> 100 µM
same,TGI,[27],> 100 µM
same,TGI,[28],> 100 µM
same,TGI,[29],> 100 µM
same,TGI,[30],> 100 µM
same,TGI,[31],> 100 µM
same,TGI,[32],> 100 µM
same,TGI,[33],> 100 µM
same,TGI,[34],> 100 µM
same,TGI,[35],> 100 µM
same,TGI,[36],> 100 µM
same,TGI,[37],> 100 µM
same,TGI,[38],> 100 µM
same,TGI,[40],> 100 µM
same,TGI,[41],> 100 µM
same,TGI,[42],> 100 µM
same,TGI,[43],> 100 µM
same,TGI,[45],> 100 µM
same,TGI,[46],> 100 µM
same,TGI,[47],86.6 µM
same,TGI,[48],> 100 µM
same,TGI,[49],> 100 µM
same,TGI,[50],> 100 µM
same,TGI,[51],> 100 µM
same,TGI,[52],> 100 µM
same,TGI,[53],> 100 µM
same,TGI,[54],> 100 µM
same,TGI,[55],> 100 µM
same,TGI,[56],> 100 µM
same,TGI,[57],> 100 µM
